The subject of the experiment is HCT-116 cell line. As to the kind of experiment: MTT cell proliferation assay. Type of experiment: cell-based. An excerpt: Structure Activity Relationships (SAR) studies for 1SS, […], 1RS, and […]. It has been reported that ablation of C3, C6 and C7 substituents is detrimental to activity. […] (See FIG. 4). Additional activity was also observed when C17 was left in its natural R configuration.
A general note: Tetrazolium assays rely on reduction of a dye to a coloured formazan, in cell work by metabolically active cells.

As to `CCC(OC)C(C)C1OC1C(O)C(C)/C=C/C=C(\C)C1OC(=O)CC(O)CCC(C)(O)C(OC(C)=O)/C=C/C1C` (stereo not drawn) [FD-895], the IC50 came out at 0.0235 ± 0.0002 µM (HCT-116 cell line, MTT); 0.0242 ± 0.0009 µM (HCT-116 cell line, MTT, listed as 1RR); 0.0242 ± 0.0009 µM (background statement, cell line not given).

The term IC50 denotes the concentration at which inhibition is half-maximal. Read a high IC50 as weaker potency.

The values are drawn from US9604973B2, “Anti-cancer polyketide compounds” (priority 2012, dated 2017).
